Measured values taken from US7294642B2, “1,3-Diamino-2-hydroxypropane pro-drug derivatives” (Elan Pharmaceuticals, Inc., priority 2002, dated 2007).

Experiment: Acyl group migration (rearrangement) of pro-drug in DMSO-d6/buffer solution monitored by 19F-NMR
Format: physicochemical
Method: A compound of formula (I) OR (X) (5 mg) is dissolved in DMSO-d6 (500 μL) and either pH 4 buffer solution (500 μL, potassium hydrogen phthalate buffer) or pH 7 buffer solution (500 μL, sodium and potassium phosphate buffer) is added. The sample is then heated to 40° C. The O-acyl or N-acyl to N-terminal N-acyl migration is monitored by observing the change in chemical shift for the aromatic fluorines using ^19F-NMR. (Fluorine shifts associated with the desired migration were confirmed by spiking with authentic analogue). The sample is analyzed by ^19F-NMR at approxiamately 0, 1.5, 3, 24, 48, and 144 hours. The amount of O-acyl pro-drug, N-acyl pro-drug, and desired migration product at each time point are assigned by integrating the corresponding NMR signal.
N˜1˜-[(2R,3S)-3-amino-4-(3,5-difluorophenyl)-2-hydroxybutyl]-5-(1,3-oxazol-2-yl)-N˜3˜,N˜3˜-dipropyl-N˜1˜-[3-(trifluoromethyl)benzyl]isophthalamide hydrochloride (PREPARATION 7, 5 mg) is dissolved in DMSO-d6 (500 μL) and pH 4 buffer solution (500 μL, potassium hydrogen phthalate buffer) is added. The sample is then heated to 40° C. The N-acyl to N-terminal N-acyl migration is monitored by observing the change in chemical shift for the aromatic fluorines using ^19F-NMR. (Fluorine shifts for the desired migration product in the presence of buffer was confirmed by spiking with authentic migration product, N^1-((1S,2R)-1-(3,5-difluorobenzyl)-2-hydroxy-3-{[3-(trifluoromethyl)benzyl]amino}propyl)-5-(1,3-oxazol-2-yl)-N^3,N^3-dipropylisophthalamide.) NMR data is collected at 0, 1, 3, 25, 48, 96, and 144 hours. The amount of N-acyl pro-drug and desired migration product present at each time point is assigned by integrating the corresponding NMR signal.
The following examples illustrate the solution acyl group migration of compounds of the formulae (I) and (X) as observed by ^19F NMR spectroscopy. Data were collected as described in Example 1, above.

## CCCN(CCC)C(=O)c1cc(C(=O)N(Cc2cccc(C(F)(F)F)c2)C[C@@H](O)[C@@H](N)Cc2cc(F)cc(F)c2)cc(-c2ncco2)c1.Cl [N˜1˜-[(2R,3S)-3-amino-4-(3,5-difluorophenyl)-2-hydroxybutyl]-5-(1,3-oxazol-2-yl)-N˜3˜,N˜3˜-dipropyl-N˜1˜-[3-(trifluoromethyl)benzyl]isophthalamide hydrochloride]
pH 4 buffer/DMSO-d6, 40° C., 0 to 144 hours, 19F-NMR
  migration of N-acyl pro-drug to O-acyl pro-drug: No migration to O-acyl pro-drug was observed

## CCCN(CCC)C(=O)c1cc(C(=O)O[C@H](CNCc2cccc(CC)c2)[C@@H](N)Cc2cc(F)cc(F)c2)cc(-c2ncco2)c1.Cl.Cl [Preparation 16, (1R,2S)-2-amino-3-(3,5-difluorophenyl)-1-{[(3-ethylbenzyl)amino]methyl}propyl 3-[(dispropylamino)carbonyl]-5-(1,3-oxazol-2-yl)benzoate dihydrochloride]
pH 4, 40° C., time 0 hr
  HEA product (% present): 0%
  N-acyl prodrug (% present): 0%
  O-acyl pro-drug (% present): 100%
pH 4, 40° C., time 1.5 hr
  HEA product (% present): 54%
  N-acyl prodrug (% present): 13%
  O-acyl pro-drug (% present): 33%
pH 4, 40° C., time 3 hr
  HEA product (% present): 76%
  N-acyl prodrug (% present): 15%
  O-acyl pro-drug (% present): 9%
pH 4, 40° C., time 24 hr
  HEA product (% present): 88%
  N-acyl prodrug (% present): 12%
  O-acyl pro-drug (% present): 0%
pH 4, 40° C., time 48 hr
  HEA product (% present): 88%
  N-acyl prodrug (% present): 12%
  O-acyl pro-drug (% present): 0%
pH 4, 40° C., time 144 hr
  HEA product (% present): 91%
  N-acyl prodrug (% present): 9%
  O-acyl pro-drug (% present): 0%
pH 7, 40° C., time 0 hr
  HEA product (% present): 0%
  N-acyl prodrug (% present): 0%
  O-acyl pro-drug (% present): 100%
pH 7, 40° C., time 1.5 hr
  HEA product (% present): 48%
  N-acyl prodrug (% present): 52%
  O-acyl pro-drug (% present): 0%
pH 7, 40° C., time 7 hr
  HEA product (% present): 54%
  N-acyl prodrug (% present): 46%
  O-acyl pro-drug (% present): 0%
pH 7, 40° C., time 24 hr
  HEA product (% present): 62%
  N-acyl prodrug (% present): 38%
  O-acyl pro-drug (% present): 0%
pH 7, 40° C., time 48 hr
  HEA product (% present): 71%
  N-acyl prodrug (% present): 29%
  O-acyl pro-drug (% present): 0%
pH 7, 40° C., time 144 hr
  HEA product (% present): 85%
  N-acyl prodrug (% present): 15%
  O-acyl pro-drug (% present): 0%

## CCCN(CCC)C(=O)c1cc(C(=O)O[C@H](CNC2(c3cccc(CC)c3)CC2)[C@@H](N)Cc2cc(F)cc(F)c2)cc(-c2ncco2)c1.Cl.Cl [Preparation 17, (1R,2S)-2-amino-3-(3,5-difluorophenyl)-1-({[1-(3-ethylphenyl)cyclopropyl]amino}methyl)propyl 3-[(dipropylamino)carbonyl]-5-(1,3-oxazol-2-yl)benzoate dihydrochloride]
pH 4, 40° C., time 0 hr
  HEA product (% present): 0%
  N-acyl prodrug (% present): 0%
  O-acyl pro-drug (% present): 100%
pH 4, 40° C., time 1.5 hr
  HEA product (% present): 47%
  N-acyl prodrug (% present): 0%
  O-acyl pro-drug (% present): 53%
pH 4, 40° C., time 3 hr
  HEA product (% present): 67%
  N-acyl prodrug (% present): 0%
  O-acyl pro-drug (% present): 33%
pH 4, 40° C., time 6 hr
  HEA product (% present): 89%
  N-acyl prodrug (% present): 0%
  O-acyl pro-drug (% present): 11%
pH 4, 40° C., time 24 hr
  HEA product (% present): 100%
  N-acyl prodrug (% present): 0%
  O-acyl pro-drug (% present): 0%
pH 7, 40° C., time 0 hr
  HEA product (% present): 0%
  N-acyl prodrug (% present): 0%
  O-acyl pro-drug (% present): 100%
pH 7, 40° C., time 1.5 hr
  HEA product (% present): 97%
  N-acyl prodrug (% present): 0%
  O-acyl pro-drug (% present): 3%
pH 7, 40° C., time 7 hr
  N-acyl prodrug (% present): 0%
pH 7, 40° C., time 24 hr
  N-acyl prodrug (% present): 0%
pH 7, 40° C., time 48 hr
  N-acyl prodrug (% present): 0%
pH 7, 40° C., time 144 hr
  N-acyl prodrug (% present): 0%

## CCCN(CCC)C(=O)c1cc(C(=O)O[C@H](CNCc2cccc(C(F)(F)F)c2)[C@@H](N)Cc2cc(F)cc(F)c2)cc(-c2ncco2)c1.Cl.Cl [Preparation 18, (1R,2S)-2-amino-3-(3,5-uorophenyl)-1-({[3-(trifluoromethyl)benzyl]amino}methyl)propyl 3-[(dipropylamino)carbonyl]-5-(1,3-oxazol-2-yl)benzoate dihydrochloride]
pH 4, 40° C., time 0 hr
  HEA product (% present): 0%
  N-acyl prodrug (% present): 0%
  O-acyl pro-drug (% present): 100%
pH 4, 40° C., time 1.5 hr
  HEA product (% present): 54%
  N-acyl prodrug (% present): 14%
  O-acyl pro-drug (% present): 32%
pH 4, 40° C., time 3 hr
  HEA product (% present): 74%
  N-acyl prodrug (% present): 18%
  O-acyl pro-drug (% present): 8%
pH 4, 40° C., time 30 hr
  HEA product (% present): 79%
  N-acyl prodrug (% present): 21%
  O-acyl pro-drug (% present): 0%
pH 4, 40° C., time 54 hr
  HEA product (% present): 80%
  N-acyl prodrug (% present): 20%
  O-acyl pro-drug (% present): 0%
pH 4, 40° C., time 126 hr
  HEA product (% present): 86%
  N-acyl prodrug (% present): 14%
  O-acyl pro-drug (% present): 0%
pH 7, 40° C., time 0 hr
  HEA product (% present): 0%
  N-acyl prodrug (% present): 0%
  O-acyl pro-drug (% present): 100%
pH 7, 40° C., time 1.5 hr
  HEA product (% present): 34%
  N-acyl prodrug (% present): 66%
  O-acyl pro-drug (% present): 0%
pH 7, 40° C., time 7 hr
  HEA product (% present): 41%
  N-acyl prodrug (% present): 59%
  O-acyl pro-drug (% present): 0%
pH 7, 40° C., time 24 hr
  HEA product (% present): 57%
  N-acyl prodrug (% present): 43%
  O-acyl pro-drug (% present): 0%
pH 7, 40° C., time 48 hr
  HEA product (% present): 73%
  N-acyl prodrug (% present): 27%
  O-acyl pro-drug (% present): 0%
pH 7, 40° C., time 144 hr
  HEA product (% present): 84%
  N-acyl prodrug (% present): 16%
  O-acyl pro-drug (% present): 0%

## CCCN(CCC)C(=O)c1cc(C(=O)N(Cc2cccc(CC)c2)C[C@@H](O)[C@@H](N)Cc2cc(F)cc(F)c2)cc(-c2ncco2)c1.Cl [Preparation 19, N^1-[(2R,3S)-3-amino-4-(3,5-difluorophenyl)-2-hydroxybutyl]-N\(u)1\(d)-(3-ethylbenzyl)-5-(1,3-oxazol-2-yl)-N^3,N^3-dispropylisophthalamide hydrochloride]
pH 4, 40° C., time 0 hr
  HEA product (% present): 0%
  N-acyl prodrug (% present): 100%
  O-acyl pro-drug (% present): 0%
pH 4, 40° C., time 1 hr
  HEA product (% present): 0%
  N-acyl prodrug (% present): 100%
  O-acyl pro-drug (% present): 0%
pH 4, 40° C., time 3 hr
  HEA product (% present): 0%
  N-acyl prodrug (% present): 100%
  O-acyl pro-drug (% present): 0%
pH 4, 40° C., time 24 hr
  HEA product (% present): 3%
  N-acyl prodrug (% present): 97%
  O-acyl pro-drug (% present): 0%
pH 4, 40° C., time 48 hr
  HEA product (% present): 5%
  N-acyl prodrug (% present): 95%
  O-acyl pro-drug (% present): 0%
pH 4, 40° C., time 96 hr
  HEA product (% present): 8%
  N-acyl prodrug (% present): 92%
  O-acyl pro-drug (% present): 0%
pH 7, 40° C., time 0 hr
  HEA product (% present): 0%
  N-acyl prodrug (% present): 100%
  O-acyl pro-drug (% present): 0%
pH 7, 40° C., time 1 hr
  HEA product (% present): 3%
  N-acyl prodrug (% present): 97%
  O-acyl pro-drug (% present): 0%
pH 7, 40° C., time 3 hr
  HEA product (% present): 9%
  N-acyl prodrug (% present): 91%
  O-acyl pro-drug (% present): 0%
pH 7, 40° C., time 24 hr
  HEA product (% present): 40%
  N-acyl prodrug (% present): 60%
  O-acyl pro-drug (% present): 0%
pH 7, 40° C., time 48 hr
  HEA product (% present): 63%
  N-acyl prodrug (% present): 37%
  O-acyl pro-drug (% present): 0%
pH 7, 40° C., time 96 hr
  HEA product (% present): 81%
  N-acyl prodrug (% present): 19%
  O-acyl pro-drug (% present): 0%
